Experimental data from patent US10435399B2, “HDAC6 inhibitory heterocyclic compound” (TAKEDA PHARMACEUTICAL COMPANY LIMITED, priority 2017, dated 2019).

target: T1, HDAC6 enzyme (Homo sapiens, UniProt Q9UBN7); test: HDAC6 enzyme inhibitory activity (HDAC-Glo I/II Assay kit); type: biochemical; settings: 10 μM; wells without enzyme = 100% inhibition; read-out: HDAC6 inhibitory rate (%) (10 μM)
T1 construct: transducing full length HDAC6 gene into Sf-9 insect cells; GST; purchased SignalChem; host or cells: Sf-9 insect cells
T1 sequence (Q9UBN7 1-1215): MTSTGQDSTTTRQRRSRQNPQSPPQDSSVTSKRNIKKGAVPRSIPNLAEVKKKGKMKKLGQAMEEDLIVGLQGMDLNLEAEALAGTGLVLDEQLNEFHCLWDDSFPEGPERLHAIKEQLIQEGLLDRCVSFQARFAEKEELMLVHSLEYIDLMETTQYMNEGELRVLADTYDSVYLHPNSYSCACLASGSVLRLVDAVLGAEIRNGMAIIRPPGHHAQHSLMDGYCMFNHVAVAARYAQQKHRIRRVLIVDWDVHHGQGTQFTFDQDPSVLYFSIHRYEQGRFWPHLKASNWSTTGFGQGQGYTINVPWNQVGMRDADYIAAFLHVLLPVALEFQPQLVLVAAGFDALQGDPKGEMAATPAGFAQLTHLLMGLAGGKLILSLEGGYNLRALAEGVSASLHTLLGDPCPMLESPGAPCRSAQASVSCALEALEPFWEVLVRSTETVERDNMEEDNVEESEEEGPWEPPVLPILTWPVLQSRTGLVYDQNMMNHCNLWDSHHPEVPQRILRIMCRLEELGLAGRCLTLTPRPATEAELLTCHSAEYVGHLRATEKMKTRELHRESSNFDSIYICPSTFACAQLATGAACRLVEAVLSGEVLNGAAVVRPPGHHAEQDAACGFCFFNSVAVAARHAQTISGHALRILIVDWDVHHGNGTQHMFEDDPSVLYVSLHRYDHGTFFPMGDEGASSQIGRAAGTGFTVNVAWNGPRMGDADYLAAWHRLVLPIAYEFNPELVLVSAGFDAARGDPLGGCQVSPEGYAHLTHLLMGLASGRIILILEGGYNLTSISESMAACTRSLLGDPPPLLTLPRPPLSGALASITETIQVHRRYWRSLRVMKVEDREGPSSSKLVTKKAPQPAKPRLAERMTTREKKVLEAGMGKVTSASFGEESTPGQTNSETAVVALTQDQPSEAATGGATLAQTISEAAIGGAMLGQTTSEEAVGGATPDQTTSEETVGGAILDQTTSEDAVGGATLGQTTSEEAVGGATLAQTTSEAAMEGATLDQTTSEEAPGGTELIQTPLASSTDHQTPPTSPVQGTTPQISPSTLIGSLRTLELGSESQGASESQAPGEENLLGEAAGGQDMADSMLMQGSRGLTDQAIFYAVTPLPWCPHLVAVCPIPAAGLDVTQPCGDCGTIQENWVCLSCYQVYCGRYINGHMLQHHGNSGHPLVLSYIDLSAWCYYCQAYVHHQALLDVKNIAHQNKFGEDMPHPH
Summary of the method: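 Luminescence read-out after 20 min reaction with HDAC-Glo substrate-developer, following 60 min room-temperature preincubation of compound with Sf-9-expressed, GST-purified full-length enzyme. Inhibition is relative to no-enzyme wells set as 100%.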

Going from `O=C(O[C@@H]1CCCC[C@H]1N1Cc2ccc(-c3nnc(C(F)F)o3)cc2C1=O)N1CCC1` [Example 232, (1R,2R)-2-(6-(5-(difluoromethyl)-1,3,4-oxadiazol-2-yl)-1-oxo-1,3-dihydro-2H-isoindol-2-yl)-cyclohexyl azetidine-1-carboxylate] to `O=C(O[C@@H]1CCCC[C@H]1N1Cc2ccc(-c3nnc(C(F)F)o3)cc2C1=O)N1CCCC1` [Example 233, (1R,2R)-2-(6-(5-(difluoromethyl)-1,3,4-oxadiazol-2-yl)-1-oxo-1,3-dihydro-2H-isoindol-2-yl)-cyclohexyl pyrrolidine-1-carboxylate], the inhibition at 10 µM rises from 98% to 100%.

Compared with `O=C1c2cc(-c3nnc(C(F)F)o3)ccc2CN1CCOCc1ccccc1` [Example 234, 2-(2-(benzyloxy)ethyl)-6-(5-(difluoromethyl)-1,3,4-oxadiazol-2-yl)isoindolin-1-one], `O=C1c2cc(-c3nnc(C(F)F)o3)ccc2CN1c1ccccc1-c1ccccn1` [Example 238, 6-(5-(difluoromethyl)-1,3,4-oxadiazol-2-yl)-2-(2-(pyridin-2-yl)phenyl)isoindolin-1-one] is higher in inhibition at 10 µM: 98% for the first, 100% for the second.

First: O=C1c2cc(-c3nnc(C(F)F)o3)cnc2CN1[C@@H]1CCCC[C@H]1NC(=O)C1(C(F)F)CC1 [Example 235, 1-(difluoromethyl)-N-((1R,2R)-2-(3-(5-(difluoromethyl)-1,3,4-oxadiazol-2-yl)-5-oxo-5,7-dihydro-6H-pyrrolo[3,4-b]pyridin-6-yl)-cyclohexyl)cyclopropane-carboxamide]
Second: O=C1c2cc(-c3nnc(C(F)F)o3)cc(F)c2CN1[C@@H]1CCCC[C@H]1NC(=O)C1(C(F)F)CC1 [Example 236, 1-(difluoromethyl)-N-((1R,2R)-2-(6-(5-(difluoromethyl)-1,3,4-oxadiazol-2-yl)-4-fluoro-1-oxo-1,3-dihydro-2H-isoindol-2-yl)-cyclohexyl)cyclopropanecarbox-amide]
The inhibition at 10 µM of the first is higher: 99% for the first, 98% for the second.

First: O=C1c2cc(-c3nnc(C(F)F)o3)cnc2CN1[C@@H]1CCCC[C@H]1NC(=O)C(F)(F)C1CC1 [Example 237]
Second: O=C1c2cc(-c3nnc(C(F)F)o3)ccc2CN1[C@@H]1CCCC[C@H]1NCC(F)(F)F [Example 257, 6-(5-(difluoromethyl)-1,3,4-oxadiazol-2-yl)-2-((1R,2R)-2-((2,2,2-trifluoroethyl)amino)-cyclohexyl)isoindolin-1-one]
The inhibition at 10 µM of the first is lower: 100% for the first, 101% for the second.

First: O=C1c2ccc(-c3nnc(C(F)F)o3)cc2C(=O)N1C[C@H]1COCCN1S(=O)(=O)C1CC1 [Example 239, 2-(((3S)-4-(cyclopropylsulfonyl)-morpholin-3-yl)methyl)-5-(5-(difluoromethyl)-1,3,4-oxadiazol-2-yl)-1H-isoindole-1,3(2H)-dione]
Second: O=C1c2cc(-c3nnc(C(F)F)o3)cc(F)c2CN1C[C@H]1COCCN1S(=O)(=O)c1ccccc1F [Example 251, 6-(5-(difluoromethyl)-1,3,4-oxadiazol-2-yl)-4-fluoro-2-(((3S)-4-((2-fluorophenyl)-sulfonyl)morpholin-3-yl)-methyl)isoindolin-1-one]
The inhibition at 10 µM of the first is lower: 99% for the first, 100% for the second.

First: O=C1c2cc(-c3nnc(C(F)F)o3)cnc2CN1c1ccccc1Br [Example 240, 6-(2-bromophenyl)-3-(5-(difluoro-methyl)-1,3,4-oxadiazol-2-yl)-6,7-dihydro-5H-pyrrolo[3,4-b]-pyridin-5-one]
Second: N#Cc1cccc(-c2ccccc2N2Cc3ncc(-c4nnc(C(F)F)o4)cc3C2=O)c1 [Example 243, 2′-(3-(5-(difluoromethyl)-1,3,4-oxadiazol-2-yl)-5-oxo-5,7-dihydro-6H-pyrrolo[3,4-b]pyridin-6-yl)biphenyl-3-carbonitrile]
The inhibition at 10 µM of the first is lower: 98% for the first, 99% for the second.

Going from `O=C1c2cc(-c3nnc(C(F)F)o3)ccc2CN1c1ccc(Cl)cc1Br` [Example 241, 2-(2-bromo-4-chlorophenyl)-6-(5-(difluoromethyl)-1,3,4-oxadiazol-2-yl)isoindolin-1-one] to `O=C1c2cc(-c3nnc(C(F)F)o3)ccc2CN1c1cc(Cl)ccc1Br` [Example 253, 2-(2-bromo-5-chlorophenyl)-6-(5-(difluoromethyl)-1,3,4-oxadiazol-2-yl)isoindolin-1-one], the inhibition at 10 µM falls from 91% to 72%.

Compared with `O=C1c2cc(-c3nnc(C(F)F)o3)cc(F)c2CN1[C@@H]1CCCC[C@H]1NS(=O)(=O)C1CC1` [Example 242, N-((1R,2R)-2-(6-(5-(difluoro-methyl)-1,3,4-oxadiazol-2-yl)-4-fluoro-1-oxo-1,3-dihydro-2H-isoindol-2-yl)cyclohexyl)-cyclopropanesulfonamide], `O=C1c2cc(-c3nnc(C(F)F)o3)ccc2CN1[C@@H]1CCCC[C@H]1NS(=O)(=O)C1CC1` [Example 246, N-((1R,2R)-2-(6-(5-(difluoro-methyl)-1,3,4-oxadiazol-2-yl)-1-oxo-1,3-dihydro-2H-isoindol-2-yl)cyclohexyl)cyclopropane-sulfonamide] is lower in inhibition at 10 µM: 101% for the first, 100% for the second.

`O=C1c2cc(-c3nnc(C(F)F)o3)cc(F)c2CN1[C@@H]1CCCC[C@H]1NS(=O)(=O)CC(F)(F)F` [Example 244] and `O=C1c2cc(-c3nnc(C(F)F)o3)ccc2CN1[C@@H]1CCCC[C@H]1NS(=O)(=O)CC(F)(F)F` [Example 245, N-((1R,2R)-2-(6-(5-(difluoro-methyl)-1,3,4-oxadiazol-2-yl)-1-oxo-1,3-dihydro-2H-isoindol-2-yl)cyclohexyl)-2,2,2-trifluoro-ethanesulfonamide] are the same in inhibition at 10 µM: 101% for the first, 101% for the second.

Going from `O=C1c2cc(-c3nnc(C(F)F)o3)ccc2CN1c1ccc(F)cc1Br` [Example 247, 2-(2-bromo-4-fluorophenyl)-6-(5-(difluoromethyl)-1,3,4-oxadiazol-2-yl)isoindolin-1-one] to `N#Cc1cccc(-c2cc(F)ccc2N2Cc3ccc(-c4nnc(C(F)F)o4)cc3C2=O)c1` [Example 249, 2′-(6-(5-(difluoromethyl)-1,3,4-oxadiazol-2-yl)-1-oxo-1,3-dihydro-2H-isoindol-2-yl)-5′-fluorobiphenyl-3-carbonitrile], the inhibition at 10 µM rises from 94% to 100%.

First: N#Cc1cccc(-c2cc(Cl)ccc2N2Cc3ccc(-c4nnc(C(F)F)o4)cc3C2=O)c1 [Example 248, 5′-chloro-2′-(6-(5-(difluoro-methyl)-1,3,4-oxadiazol-2-yl)-1-oxo-1,3-dihydro-2H-isoindol-2-yl)biphenyl-3-carbonitrile]
Second: Cn1cc(Br)c(N2Cc3ccc(-c4nnc(C(F)F)o4)cc3C2=O)n1 [Example 250, 2-(4-bromo-1-methyl-1H-pyrazol-3-yl)-6-(5-(difluoro-methyl)-1,3,4-oxadiazol-2-yl)isoindolin-1-one]
The inhibition at 10 µM of the first is higher: 100% for the first, 95% for the second.

First: O=C1c2cc(-c3nnc(C(F)F)o3)cc(F)c2CN1C[C@H]1COCCN1S(=O)(=O)c1ccc(F)cc1 [Example 252, 6-(5-(difluoromethyl)-1,3,4-oxadiazol-2-yl)-4-fluoro-2-(((3S)-4-((4-fluorophenyl)-sulfonyl)morpholin-3-yl)-methyl)isoindolin-1-one]
Second: N[C@H]1CCCC[C@H]1N1Cc2ccc(-c3nnc(C(F)F)o3)cc2C1=O [Example 256]
The inhibition at 10 µM of the first is higher: 99% for the first, 91% for the second.

Going from `O=C(O[C@@H]1CCCC[C@H]1N1Cc2ccc(-c3nnc(C(F)F)o3)cc2C1=O)N1CCCCC1` [Example 254, (1R,2R)-2-(6-(5-(difluoro-methyl)-1,3,4-oxadiazol-2-yl)-1-oxo-1,3-dihydro-2H-isoindol-2-yl)cyclohexyl piperidine-1-carboxylate] to `CC(C)(C)OC(=O)N[C@H]1CCCC[C@H]1N1Cc2ccc(-c3nnc(C(F)F)o3)cc2C1=O` [Example 255, tert-butyl ((1S,2R)-2-(6-(5-(difluoromethyl)-1,3,4-oxadiazol-2-yl)-1-oxo-1,3-dihydro-2H-isoindol-2-yl)cyclohexyl)carbamate], the inhibition at 10 µM falls from 102% to 100%.
